Data: ChEMBL document CHEMBL1137986, “Multidrug resistance reversal activity of permethyl ningalin B amide derivatives” (Bioorg Med Chem Lett, 2004)

Assays:
[1] = system: HCT-116; test: Multi drug resistance reversal in HCT116/VM46 cell line treated with Doxorubicin; type: functional, Homo sapiens
[2] = system: HCT-116; test: Intrinsic cytotoxic activity against wild type HCT116 cell line; type: functional, cell-based; settings: Homo sapiens
[3] = system: HCT-116; test: inhibitory activity of compound against Multidrug resistance HCT116/VM46 cell line treated with Doxorubicin; type: functional, cell-based; settings: Homo sapiens
[4] = system: HCT-116; test: inhibitory activity of compound against Multidrug resistant HCT116/VM46 cell line treated with Vinblastine; type: functional, cell-based; settings: Homo sapiens
[5] = system: HCT-116; test: Multi drug resistance reversal in HCT116/VM46 cell line treated with Vinblastine; type: functional, Homo sapiens
[6] = system: HCT-116; test: Intrinsic cytotoxic activity against Multidrug resistant HCT116/VM46 cell line; type: functional, cell-based; settings: Homo sapiens
[7] = system: HCT-116; test: inhibitory activity of compound against Multidrug resistant HCT116/VM46 cell line treated with Doxorubicin at a compound concentration 7.5 uM; type: functional, cell-based; settings: Homo sapiens
[8] = system: HCT-116; test: Multi drug resistance reversal in HCT116/VM46 cell line treated with Doxorubicin at a compound concentration 7.5 uM; type: functional, Homo sapiens
[9] = system: HCT-116; test: Multi drug resistance reversal in HCT116/VM46 cell line treated with Vinblastine at a compound concentration 7.5 uM; type: functional, Homo sapiens
[10] = system: HCT-116; test: inhibitory activity against Multidrug resistant HCT116/VM46 cell line treated with Vinblastine at a compound concentration 7.5 uM; type: functional, cell-based; settings: Homo sapiens
[11] = system: HCT-116; test: Intrinsic cytotoxic activity against multidrug resistant HCT116/VM46 cell line; type: functional, cell-based; settings: Homo sapiens
[12] = system: HCT-116; test: inhibitory activity of compound against multidrug resistant HCT116/VM46 cell line treated with Vinblastine; type: functional, cell-based; settings: Homo sapiens
[13] = system: HCT-116; test: inhibitory activity of compound against multidrug resistance HCT116/VM46 cell line treated with Doxorubicin; type: functional, cell-based; settings: Homo sapiens

Row | SMILES | Reversion [1] | IC50 [2] | IC50 [3] | IC50 [4] | Reversion [5] | IC50 [6] | IC50 [7] | Reversion [8] | Reversion [9] | IC50 [10] | IC50 [11] | IC50 [12] | IC50 [13]
1 | COc1ccc(CCn2c(C(=O)NNCCc3c[nH]c4ccccc34)c(-c3ccc(OC)c(OC)c3)c3c4cc(OC)c(OC)cc4oc(=O)c32)cc1OC | 100% | > 100000 nM | 100 nM | 4 nM | 100% | > 100000 nM |  |  |  |  |  |  | 
2 | COc1ccc(CCn2c(C(=O)NN)c(-c3ccc(OC)c(OC)c3)c3c4cc(OC)c(OC)cc4oc(=O)c32)cc1OC | 40% | > 100000 nM | 240 nM | 7 nM | 60% | > 100000 nM |  |  |  |  |  |  | 
3 | COc1ccc(CCn2cc(-c3ccc(OC)c(OC)c3)c3c4cc(OC)c(OC)cc4oc(=O)c32)cc1OC |  |  |  | 2 nM | 100% |  |  |  |  |  |  |  | 
4 | COc1ccc(CCNNC(=O)c2c(-c3ccc(OC)c(OC)c3)c3c4cc(OC)c(OC)cc4oc(=O)c3n2CCc2ccc(OC)c(OC)c2)cc1 | 167% | 20000 nM | 60 nM | 2 nM | 200% | 10000 nM |  |  |  |  |  |  | 
5 | COc1ccc(CCn2c(C(=O)NN[C@@H](C)C(=O)OC(C)(C)C)c(-c3ccc(OC)c(OC)c3)c3c4cc(OC)c(OC)cc4oc(=O)c32)cc1OC | 55% | 7000 nM | 180 nM | 8 nM | 50% | 4000 nM |  |  |  |  |  |  | 
6 | COC(=O)c1c(-c2ccc(OC)c(OC)c2)c2c3cc(OC)c(OC)cc3oc(=O)c2n1CCc1ccc(OC)c(OC)c1 |  |  |  | 2 nM | 100% |  |  |  |  |  |  |  | 
7 | COc1ccc(CCn2c(C(=O)NCCNC(=O)c3c(-c4ccc(OC)c(OC)c4)c4c5cc(OC)c(OC)cc5oc(=O)c4n3CCc3ccc(OC)c(OC)c3)c(-c3ccc(OC)c(OC)c3)c3c4cc(OC)c(OC)cc4oc(=O)c32)cc1OC | 10% | > 100000 nM | 750 nM | 50 nM | 10% | > 100000 nM |  |  |  |  |  |  | 
8 | COCCN(CCOC)NC(=O)c1c(-c2ccc(OC)c(OC)c2)c2c3cc(OC)c(OC)cc3oc(=O)c2n1CCc1ccc(OC)c(OC)c1 | 50% | 25000 nM | 150 nM | 9 nM | 45% | 15000 nM |  |  |  |  |  |  | 
9 | COc1ccc(CNNC(=O)c2c(-c3ccc(OC)c(OC)c3)c3c4cc(OC)c(OC)cc4oc(=O)c3n2CCc2ccc(OC)c(OC)c2)cc1 | 80% | 40000 nM | 120 nM | 4 nM | 100% | 30000 nM |  |  |  |  |  |  | 
10 | COc1ccc(CCn2c(C(=O)NNCCc3ccc(F)cc3)c(-c3ccc(OC)c(OC)c3)c3c4cc(OC)c(OC)cc4oc(=O)c32)cc1OC | 100% | 30000 nM | 100 nM | 4 nM | 100% | 20000 nM |  |  |  |  |  |  | 
11 | CC[C@]1(O)C[C@@H]2CN(CCc3c([nH]c4ccccc34)[C@@](C(=O)OC)(c3cc4c(cc3OC)N(C)[C@H]3[C@@](O)(C(=O)OC)[C@H](OC(C)=O)[C@]5(CC)C=CCN6CC[C@]43[C@@H]65)C2)C1 [VINBLASTINE] |  | 4 nM |  |  |  |  |  |  |  |  |  |  | 
12 | COc1cccc(CCNNC(=O)c2c(-c3ccc(OC)c(OC)c3)c3c4cc(OC)c(OC)cc4oc(=O)c3n2CCc2ccc(OC)c(OC)c2)c1 | 100% | 25000 nM | 100 nM | 2 nM | 200% | 5000 nM |  |  |  |  |  |  | 
13 | COC(=O)[C@H](CCCNNC(=O)c1c(-c2ccc(OC)c(OC)c2)c2c3cc(OC)c(OC)cc3oc(=O)c2n1CCc1ccc(OC)c(OC)c1)NC(=O)OCc1ccccc1 | 100% | 45000 nM | 100 nM | 5 nM | 80% | 40000 nM |  |  |  |  |  |  | 
14 | COc1ccc(CCn2c(C(=O)N(C)C)c(-c3ccc(OC)c(OC)c3)c3c4cc(OC)c(OC)cc4oc(=O)c32)cc1OC | 100% | 25000 nM | 100 nM | 2 nM | 100% | 20000 nM | 10 nM | 1000% | 1000% | 0.2 nM |  |  | 
15 | COc1ccc(CCn2c(C(=O)NNCCc3cccs3)c(-c3ccc(OC)c(OC)c3)c3c4cc(OC)c(OC)cc4oc(=O)c32)cc1OC | 100% | > 100000 nM | 100 nM | 4 nM | 100% | > 100000 nM |  |  |  |  |  |  | 
16 | COc1ccc(CCn2c(C(=O)NNC(c3ccccc3)c3ccccc3)c(-c3ccc(OC)c(OC)c3)c3c4cc(OC)c(OC)cc4oc(=O)c32)cc1OC | 80% | 25000 nM | 120 nM | 4 nM | 100% | 15000 nM |  |  |  |  |  |  | 
17 | COc1ccc(CCn2c(C(=O)NCCCCCCNC(=O)c3c(-c4ccc(OC)c(OC)c4)c4c5cc(OC)c(OC)cc5oc(=O)c4n3CCc3ccc(OC)c(OC)c3)c(-c3ccc(OC)c(OC)c3)c3c4cc(OC)c(OC)cc4oc(=O)c32)cc1OC | 20% | > 100000 nM | 450 nM | 30 nM | 15% | > 100000 nM |  |  |  |  |  |  | 
18 | COc1ccc(CCn2c(C(=O)NNCCCCCCSC(C)=O)c(-c3ccc(OC)c(OC)c3)c3c4cc(OC)c(OC)cc4oc(=O)c32)cc1OC | 50% | 20000 nM | 200 nM | 10 nM | 25% | 35000 nM |  |  |  |  |  |  | 
19 | COc1ccc(OC)c(CCNNC(=O)c2c(-c3ccc(OC)c(OC)c3)c3c4cc(OC)c(OC)cc4oc(=O)c3n2CCc2ccc(OC)c(OC)c2)c1 | 100% | 25000 nM | 100 nM | 2 nM | 200% | 10000 nM |  |  |  |  |  |  | 
20 | COc1ccc(CCn2c(C(=O)NNCCc3ccc(O)cc3)c(-c3ccc(OC)c(OC)c3)c3c4cc(OC)c(OC)cc4oc(=O)c32)cc1OC | 55% | 15000 nM | 180 nM | 10 nM | 25% | 10000 nM |  |  |  |  |  |  | 
21 | COc1ccc(CCn2c(C(=O)NN3CCC4(CC3)OCCO4)c(-c3ccc(OC)c(OC)c3)c3c4cc(OC)c(OC)cc4oc(=O)c32)cc1OC | 100% | 15000 nM | 100 nM | 6 nM | 67% | 10000 nM |  |  |  |  |  |  | 
22 | COc1ccc(CCN(C)CCCC(C#N)(c2ccc(OC)c(OC)c2)C(C)C)cc1OC (stereo not drawn) | 20% |  | 500 nM | 20 nM | 10% |  |  |  |  |  |  |  | 
23 | COc1ccc(C2CC2NNC(=O)c2c(-c3ccc(OC)c(OC)c3)c3c4cc(OC)c(OC)cc4oc(=O)c3n2CCc2ccc(OC)c(OC)c2)cc1 (stereo not drawn) | 100% | > 100000 nM |  |  | 100% |  |  |  |  |  | > 100000 nM | 4 nM | 100 nM
24 | COc1ccc(CCNNC(=O)c2c(-c3ccc(OC)c(OC)c3)c3c4cc(OC)c(OC)cc4oc(=O)c3n2CCc2ccc(OC)c(OC)c2)cc1OC | 100% | 5000 nM | 100 nM | 4 nM | 100% | 5000 nM |  |  |  |  |  |  | 
